Measurements from BindingDB's records for patent US12391687 (Shanghai Ennovabio Pharmaceuticals, 2025).

What was measured:
[1] = biological target: BDNF/NT-3 growth factors receptor (Homo sapiens, UniProt Q16620); assay: In Vitro Activity Test on TRKA, TRKB, TRKC Kinase
Protocol: (§1) Table 1: Experimental MethodThe tested compounds were subjected to 3-fold serial dilution to reach a final concentration of 1 μM to 0.05 nM (10 concentrations), duplicates for each concentration; and the DMSO concentration in the detection reaction was 1%.TRKA Enzyme Reaction:0.2 ng/μL TRKA protein kinase, 1 μM TK Substrate-biotin polypeptide substrate, 14.68 μM ATP, 1×enzymatic buffer, 5 mM MgCl2, and 1 mM DTT. The assay plate was White Proxiplate384-Plus plate (PerkinElmer), and the reaction was incubated at room temperature for 40 min, and the assay volume was 10 μL.TRKB Enzyme Reaction:0.037 ng/μL TRKB protein kinase, 1 μM TK Substrate-biotin polypeptide substrate, 4.77 μM ATP, 1× enzymatic buffer, 5 mM MgCl2, 1 mM MnCl2 and 1 mM DTT. The assay plate was White Proxiplate 384-Plus plate (PerkinElmer), the reaction was incubated at room temperature for 50 min, and the assay volume was 10 μL.TRKC Enzyme Reaction:0.037 ng/μL TRKC protein kinase, 1 μM TK Substrate-biotin polypeptide substrate, 25.64 μM ATP, 1× enzymatic buffer, 5 mM MgCl2, and 1 mM DTT. The detection plate was White Proxiplate 384-Plus plate (PerkinElmer), the reaction was incubated at room temperature for 40 min, and the assay volume was 10 μL.Detection Steps:10 μL of detection reagent (containing 0.125 μM SA-XL665 and 5 μL 1×TK-Antibody) was added to the plate and incubated overnight at room temperature. Synergy Neo 2 was used to read the plate.

[2] = biological target: NT-3 growth factor receptor (Homo sapiens, UniProt Q16288); assay: In Vitro Activity Test on TRKA, TRKB, TRKC Kinase
Sequence of NT-3 growth factor receptor (Q16288 whole entry): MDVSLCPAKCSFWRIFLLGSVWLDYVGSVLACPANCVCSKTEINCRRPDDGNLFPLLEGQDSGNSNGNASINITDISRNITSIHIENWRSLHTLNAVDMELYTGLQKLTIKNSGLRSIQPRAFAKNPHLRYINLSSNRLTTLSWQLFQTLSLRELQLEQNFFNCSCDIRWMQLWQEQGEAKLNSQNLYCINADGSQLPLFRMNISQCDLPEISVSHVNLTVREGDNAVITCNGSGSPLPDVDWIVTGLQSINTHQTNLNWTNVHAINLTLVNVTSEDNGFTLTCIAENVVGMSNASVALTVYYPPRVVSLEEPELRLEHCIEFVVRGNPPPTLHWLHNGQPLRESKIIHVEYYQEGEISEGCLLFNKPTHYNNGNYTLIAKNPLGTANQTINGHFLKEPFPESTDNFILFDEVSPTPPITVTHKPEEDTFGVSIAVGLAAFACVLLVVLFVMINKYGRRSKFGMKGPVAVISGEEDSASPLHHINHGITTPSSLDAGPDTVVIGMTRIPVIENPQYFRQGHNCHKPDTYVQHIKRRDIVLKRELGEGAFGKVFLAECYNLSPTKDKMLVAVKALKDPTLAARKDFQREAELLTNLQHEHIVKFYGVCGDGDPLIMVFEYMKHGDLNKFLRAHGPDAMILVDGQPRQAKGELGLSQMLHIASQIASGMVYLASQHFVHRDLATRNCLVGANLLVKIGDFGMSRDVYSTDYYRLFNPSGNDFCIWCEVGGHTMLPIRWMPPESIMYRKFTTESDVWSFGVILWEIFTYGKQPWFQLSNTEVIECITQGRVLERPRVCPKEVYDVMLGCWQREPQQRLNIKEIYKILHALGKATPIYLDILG
Protocol: as §1

[3] = biological target: High affinity nerve growth factor receptor (Homo sapiens, UniProt P04629); assay: In Vitro Activity Test on TRKA, TRKB, TRKC Kinase
Sequence of High affinity nerve growth factor receptor (P04629 whole entry): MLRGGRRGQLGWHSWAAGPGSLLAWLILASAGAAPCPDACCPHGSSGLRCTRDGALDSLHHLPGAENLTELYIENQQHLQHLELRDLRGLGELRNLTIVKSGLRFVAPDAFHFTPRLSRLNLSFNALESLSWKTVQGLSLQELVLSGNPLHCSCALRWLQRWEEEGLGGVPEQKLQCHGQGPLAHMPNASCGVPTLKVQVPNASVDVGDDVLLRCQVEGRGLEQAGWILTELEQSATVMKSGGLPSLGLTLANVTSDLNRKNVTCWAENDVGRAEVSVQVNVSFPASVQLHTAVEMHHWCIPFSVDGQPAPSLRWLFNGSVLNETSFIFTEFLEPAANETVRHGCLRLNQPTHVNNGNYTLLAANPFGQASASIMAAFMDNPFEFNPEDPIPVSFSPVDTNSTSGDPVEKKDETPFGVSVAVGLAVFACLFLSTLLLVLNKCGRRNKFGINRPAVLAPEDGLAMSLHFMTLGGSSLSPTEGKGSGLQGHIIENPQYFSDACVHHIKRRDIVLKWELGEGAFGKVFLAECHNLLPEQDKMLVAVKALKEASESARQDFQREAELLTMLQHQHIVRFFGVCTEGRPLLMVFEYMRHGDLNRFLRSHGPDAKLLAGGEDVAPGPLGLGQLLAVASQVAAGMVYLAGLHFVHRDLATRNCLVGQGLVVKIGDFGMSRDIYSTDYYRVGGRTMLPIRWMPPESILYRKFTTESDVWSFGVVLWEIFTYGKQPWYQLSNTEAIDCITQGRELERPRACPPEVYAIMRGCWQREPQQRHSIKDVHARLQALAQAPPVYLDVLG
Protocol: as §1

[4] = biological target: High affinity nerve growth factor receptor [G595R] (Homo sapiens, UniProt P04629, G595R); assay: In Vitro Activity Test on Mutant TRKA (G595R)
Sequence of High affinity nerve growth factor receptor [G595R] (P04629 33-796 G595R limits assumed): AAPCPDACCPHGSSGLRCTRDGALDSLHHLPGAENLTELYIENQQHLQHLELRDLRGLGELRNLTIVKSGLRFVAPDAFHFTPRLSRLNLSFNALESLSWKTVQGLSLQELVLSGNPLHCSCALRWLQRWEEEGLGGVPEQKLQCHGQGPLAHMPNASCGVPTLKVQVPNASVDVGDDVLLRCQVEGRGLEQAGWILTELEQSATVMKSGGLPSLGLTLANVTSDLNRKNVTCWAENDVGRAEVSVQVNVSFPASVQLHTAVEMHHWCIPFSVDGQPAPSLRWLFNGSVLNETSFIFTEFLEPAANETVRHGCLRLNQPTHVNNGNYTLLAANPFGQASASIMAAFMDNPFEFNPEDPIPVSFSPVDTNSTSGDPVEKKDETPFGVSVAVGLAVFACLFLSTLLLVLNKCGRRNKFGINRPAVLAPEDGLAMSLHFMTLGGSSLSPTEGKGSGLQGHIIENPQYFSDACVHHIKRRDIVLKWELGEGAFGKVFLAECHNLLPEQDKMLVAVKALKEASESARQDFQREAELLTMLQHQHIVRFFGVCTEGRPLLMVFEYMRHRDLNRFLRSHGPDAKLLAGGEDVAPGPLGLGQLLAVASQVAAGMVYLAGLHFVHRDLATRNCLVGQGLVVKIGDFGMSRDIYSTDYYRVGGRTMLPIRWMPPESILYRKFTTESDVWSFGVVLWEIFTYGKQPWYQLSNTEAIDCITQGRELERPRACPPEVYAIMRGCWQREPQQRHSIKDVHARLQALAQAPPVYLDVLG
Protocol: Table 3: Experimental MaterialsThe recombinant human TRKA (G595R), TRKA (G667C) and TRKC (G623R) proteins were purchased from SignalChem. HTRF kinEASE TK kit was purchased from Cisbio Bioassays. Synergy Neo 2 of Biotek was used to read the plate. TRKA (G595R) Enzyme Reaction:0.12 ng/μL TRKA (G595R) kinase, 1 μM TK Substrate-biotin polypeptide substrate, 4.5 μM ATP, 1× enzymatic buffer, 5 mM MgCl2, and 1 mM DTT. The assay plate was White Proxiplate384-Plus plate (PerkinElmer), and the reaction was incubated at room temperature for 30 min, and the assay volume was 10 μL. Detection Steps:10 μL of detection reagent (containing 0.125 μM SA-XL665 and 5 μL 1×TK-Antibody) was added to the plate and incubated overnight at room temperature, and Synergy Neo 2 was used to read the plate.

Sequence of BDNF/NT-3 growth factors receptor (Q16620 whole entry): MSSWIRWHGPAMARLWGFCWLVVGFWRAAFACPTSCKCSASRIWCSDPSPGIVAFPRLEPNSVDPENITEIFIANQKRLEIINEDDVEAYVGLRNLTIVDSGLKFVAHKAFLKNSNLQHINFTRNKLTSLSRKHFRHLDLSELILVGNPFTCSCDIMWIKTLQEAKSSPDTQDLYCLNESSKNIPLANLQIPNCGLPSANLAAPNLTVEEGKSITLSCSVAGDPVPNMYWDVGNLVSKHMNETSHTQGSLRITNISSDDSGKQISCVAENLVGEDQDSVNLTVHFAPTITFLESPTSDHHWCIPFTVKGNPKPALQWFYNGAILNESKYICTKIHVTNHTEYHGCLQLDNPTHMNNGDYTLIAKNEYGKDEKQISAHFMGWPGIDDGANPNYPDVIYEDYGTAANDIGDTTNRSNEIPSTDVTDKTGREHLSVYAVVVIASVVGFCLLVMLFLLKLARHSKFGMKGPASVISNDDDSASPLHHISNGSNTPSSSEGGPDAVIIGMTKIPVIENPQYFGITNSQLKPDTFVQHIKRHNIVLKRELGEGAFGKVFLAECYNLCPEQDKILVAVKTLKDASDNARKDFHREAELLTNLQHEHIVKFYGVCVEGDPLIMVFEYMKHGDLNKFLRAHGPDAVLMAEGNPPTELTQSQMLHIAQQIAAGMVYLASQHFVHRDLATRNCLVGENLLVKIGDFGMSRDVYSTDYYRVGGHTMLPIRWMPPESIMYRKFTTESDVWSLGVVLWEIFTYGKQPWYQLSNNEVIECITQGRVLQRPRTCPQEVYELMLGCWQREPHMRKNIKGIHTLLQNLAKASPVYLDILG

Structure (SMILES) | IC50 [1] [nM] | IC50 [2] [nM] | IC50 [3] [nM] | IC50 [4] [nM]
O=C(Nc1cnc2[nH]nc(N3C[C@@H](F)C[C@@H]3c3cc(F)ccc3F)c2c1)c1ccc(N2CC[C@H](O)C2)nc1 [US12391687, Example 11] | < 1 | < 10 |  | < 10
Fc1ccc(F)c([C@H]2C[C@H](F)CN2c2n[nH]c3ncc(-c4cnn(C5CNC5)c4)cc23)c1 [US12391687, Example 26] | < 1 | < 1 | < 1 | 
CC(C)OCc1nnc(-c2cnc3[nH]nc(N4C[C@@H](F)C[C@@H]4c4cc(F)ccc4F)c3c2)o1 [US12391687, Example 42] | < 1 | < 1 | < 1 | 

The remaining lines, values ahead:

IC50 [1] [nM] | IC50 [2] [nM] | IC50 [3] [nM] | IC50 [4] [nM] | Structure (SMILES)
< 10 | < 10 | < 10 |  | CNC(=O)c1cnc2[nH]nc(N3CCC[C@@H]3c3cc(F)ccc3F)c2c1 [US12391687, Example 7]
< 10 | < 10 | < 10 |  | NC(=O)CCNC(=O)c1cnc2[nH]nc(N3CCC[C@@H]3c3cc(F)ccc3F)c2c1 [US12391687, Example 15]
